Reference: patent US10280229B2, “Linkers and their application towards ADC” (MEDSHINE DISCOVERY INC., priority 2014, dated 2019)

The compounds below were run against bovine cathepsin B (Bos taurus, UniProt P07688) (assay: Rate of hydrolysis of fluorescent dipeptide substrates incubated with bovine cathepsin B (release of 7-AMC)). Details: incubation with bovine cathepsin B.
Assay type: biochemical
Procedure: A convenient method was developed to identify suitable dipeptide units for the use in drug-linker intermediates. Cbz-protected dipeptides incorporated a fluorescent tag (7-amino-4-methylcouramin, 7-AMC) via a para-aminobenzyl carbonyl fragment were prepared by standard peptide chemistry as shown in Scheme 1. These dipeptide substrates were then incubated with bovine cathepsin B under a similar condition as described by Dubowchik (Biorg. Med. Chem. Lett. 1998, 8, 3341-3346). Rate of hydrolysis by bovine cathepsin B was measured by the release of 7-AMC (Table 1). Novel dipeptides with hydrolysis rates slower than the substrate A were rejected. The three dipeptide units in FS-9, FS-10 and FS-11 were selected as additional dipeptide units for drug-linker intermediate preparation.
With `Cc1cc(=O)oc2cc(NC(=O)OCc3ccc(NC(=O)[C@H](CCCNC(N)=O)NC(=O)[C@@H](NC(=O)OCc4ccccc4)C4CCNCC4)cc3)ccc12` the “Rate of Hydrolysis” value was 0.84 nmmol/min/mg.
For `Cc1cc(=O)oc2cc(NC(=O)OCc3ccc(NC(=O)[C@H](CCCNC(N)=O)NC(=O)[C@@H](NC(=O)OCc4ccccc4)C4CCN(C)CC4)cc3)ccc12`, the “Rate of Hydrolysis” value was 0.59 nmmol/min/mg.
With `CCOC(=O)N1CCC([C@H](NC(=O)OCc2ccccc2)C(=O)N[C@@H](CCCNC(N)=O)C(=O)Nc2ccc(COC(=O)Nc3ccc4c(C)cc(=O)oc4c3)cc2)CC1` the “Rate of Hydrolysis” value was 0.63 nmmol/min/mg.
For `Cc1cc(=O)oc2cc(NC(=O)OCc3ccc(NC(=O)[C@H](CCCNC(N)=O)NC(=O)[C@@H](NC(=O)OCc4ccccc4)C4CCOCC4)cc3)ccc12`, the “Rate of Hydrolysis” value was 0.84 nmmol/min/mg.
With `Cc1cc(=O)oc2cc(NC(=O)OCc3ccc(NC(=O)[C@H](CCCNC(N)=O)NC(=O)[C@@H](NC(=O)OCc4ccccc4)C4CCSCC4)cc3)ccc12` the “Rate of Hydrolysis” value was 0 nmmol/min/mg.
With `Cc1cc(=O)oc2cc(NC(=O)OCc3ccc(NC(=O)[C@H](CCCNC(N)=O)NC(=O)[C@@H](NC(=O)OCc4ccccc4)C4CC[S+]([O-])CC4)cc3)ccc12` (stereo partly drawn) the “Rate of Hydrolysis” value was 0.55 nmmol/min/mg.
`Cc1cc(=O)oc2cc(NC(=O)OCc3ccc(NC(=O)[C@H](CCCNC(N)=O)NC(=O)[C@@H](NC(=O)OCc4ccccc4)C4CCS(=O)(=O)CC4)cc3)ccc12` was tested, and the “Rate of Hydrolysis” value was 0 nmmol/min/mg.
With `Cc1cc(=O)oc2cc(NC(=O)OCc3ccc(NC(=O)[C@H](CCCNC(N)=O)NC(=O)[C@@H](NC(=O)OCc4ccccc4)C4CCCNC4)cc3)ccc12` (stereo partly drawn) the “Rate of Hydrolysis” value was 0 nmmol/min/mg.
`Cc1cc(=O)oc2cc(NC(=O)OCc3ccc(NC(=O)[C@H](CCCN4CCOCC4)NC(=O)[C@@H](NC(=O)OCc4ccccc4)C(C)C)cc3)ccc12` was tested, and the “Rate of Hydrolysis” value was 27.2 nmmol/min/mg.
`Cc1cc(=O)oc2cc(NC(=O)OCc3ccc(NC(=O)[C@H](CCCN4CCCCC4)NC(=O)[C@@H](NC(=O)OCc4ccccc4)C(C)C)cc3)ccc12` was tested, and the “Rate of Hydrolysis” value was 25.1 nmmol/min/mg.
`Cc1cc(=O)oc2cc(NC(=O)OCc3ccc(NC(=O)C(CC4CCC(CN)CC4)NC(=O)[C@@H](NC(=O)OCc4ccccc4)C(C)C)cc3)ccc12` (stereo partly drawn) was tested, and the “Rate of Hydrolysis” value was 20.9 nmmol/min/mg.
For `Cc1cc(=O)oc2cc(NC(=O)OCc3ccc(NC(=O)[C@H](CCCNC(N)=O)NC(=O)[C@@H](NC(=O)OCc4ccccc4)C(C)C)cc3)ccc12` [reference compound], the “Rate of Hydrolysis” value was 2.67 nmmol/min/mg.
